The source of these data is EP1410783B1, “Foaming compositions” (Beiersdorf AG, priority 2001, dated 2003).

The nature of the first data set: Polarity of lipids (no method described). It counts as physicochemical. The settings on record: further lipids with polarity ≥ 30 mN/m, listed by INCI name.
Consider `CCCCC(CC)COC(=O)CCCCCC(C)C` (stereo not drawn) [2- Ethylhexyl Isononanoate], for which the Polarität is listed as 31,0 mN/m. Turning to `CCCCCCCC/C=C\CCCCCCCC(=O)OCCOCCOCC` [Ethoxydiglycol Oleate], the Polarität is given as 40,5 mN/m. Take `CCCCCCCCCCCCCC(C)C` [Isohexadecane]: the Polarität is 43,8 mN/m. For `CCCCCCCCOC(=O)CCCCCCCCCCCCCCC(C)C` [Octyl Isostearate], the Polarität is reported as 31,6 mN/m. In the case of `CC(CCOC(=O)CC(C)CC(C)(C)C)CC(C)(C)C` (stereo not drawn) [Trimethylhexyl Isononanoate], the Polarität was 31,1 mN/m. As for Dioctylcyclohexane, the Polarität is recorded as 39,0 mN/m. As to Isocetyl Palmitate, the Polarität is listed as 36,2 mN/m. For Isoeikosan, the Polarität is 41,9 mN/m.

Still in this data set, the particulars now being: lipids of the oil phase with polarity ≤ 30 mN/m, listed by manufacturer, trade name and INCI name.
Turning to `CCCCOC(=O)CCCCC(=O)OCCCC` [Cetiol B, Dibutyl Adipate], the Polarität is on record as 14,3 mN/m.

For `CC(C)CCCCCCCOC(=O)C(C)(C)C` [DUB VCI 10, Isodecyl Neopentanoate], the Polarität is given as 29,9 mN/m. On to `CCCCC(CC)C(=O)OCCC(C)CC(C)(C)C` (stereo not drawn) [Dermol 98, 2-Ethylhexanosäure 3,5,5 Trimethylester], for which the Polarität was 26,2 mN/m. As for `CCCCCCCC(=O)OCCCCCCCC(C)C` [Dermol 108, Isodecyl Octanoate], the Polarität is on record as 29,6 mN/m.

`CC(C)CCCCCCCOC(=O)CC(C)CC(C)(C)C` (stereo not drawn) [Dermol 109, Isodecyl 3,5,5 Trimethyl Hexanoate]: the Polarität is 29,1 mN/m.

For `CCCCCCCCCC(=O)OCCCC(C)C` [Dermol IHD, Isohexyldecanoate], the Polarität was 29,7 mN/m. For `CCCCCCOCCCCCC` [Dihexyl Ether], the Polarität was 29,2 mN/m. Turning to `CCCCCCCCCCC(CO)CCCCCCCC` (stereo not drawn) [Eutanol G, Octyldodecanol], the Polarität is 24,8 mN/m.

In the case of `CCCCCCC(CCCC)C(=O)O` (stereo not drawn) [Isocarb 12, Butyl Octanoicacid], the Polarität is 22,1 mN/m. Consider `CCCCCCC(CO)CCCC` (stereo not drawn) [Isofol 12, Butyl Octanol], for which the Polarität is recorded as 17,4 mN/m. For `CCCCCCCCC(CO)CCCCCC` (stereo not drawn) [Isofol 16, Hexyl Decanol], the Polarität is listed as 24,3 mN/m. Turning to `CCCCCCCCCCCCCCCCCC(=O)OC(C)C` [Isopropylstearat, Isopropyl Stearate], the Polarität is 21,9 mN/m. For `CCCCCCCCCCCCCC(=O)OCC(CCCCCCCC)CCCCCCCCCC` (stereo not drawn) [M.O.D., Octyldodeceyl Myristate], the Polarität is given as 22,1 mN/m. As to `CCCCCCCCCCCCCCCCCCOC(=O)CCCCCC` [Tegosoft SH, Stearyl Heptanoate], the Polarität is 17,8 mN/m. As to `CCCCCCCC(=O)OCC(COC(=O)CCCCCCC)OC(=O)CCCCCCC` [Trivent OCG, Tricaprylin], the Polarität was 20,2 mN/m. Same read-out and setting: with Cetearyl Isononanoate [Cetiol SN] the figure was 28,6 mN/m; with Cyclomethicone [DC Fluid 345], 28,5 mN/m; with “Cyclopolydimethylsiloxan [Dow Corning Fluid 244]”, 28,5 mN/m. As for “Isotridecyl 3,5,5 Trimethylhexanonanoate [Dermol 139]”, the Polarität is reported as 24,5 mN/m.

Consider PEG 2 Diethylenhexanoate [Dermol 488], for which the Polarität was 10,1 mN/m. As for Phenyl Trimethicone [Silikonöl VP 1120], the Polarität is 22,7 mN/m. Turning to Triisostearin [Prisorine 2041 GTIS], the Polarität was 2,4 mN/m.
